Values quoted from earlier work, collected in patent US11406619B2, “Injectable formulations” (priority 2020, dated 2022).

Conditions: according to the Human Metabolome Database; cited from earlier work

CN(C)CCc1c[nH]c2ccccc12 [Formulation D0, N,N-dimethyltryptamine]
degradation in solution: degrades relatively quickly in solution
